Like-named read-outs stand apart in the source and are kept apart here. Non-standard residues stand in square brackets, D forms with d. Residues, ends and D or L forms follow the SMILES beside them. No end group written: not given here.
What was measured:
[1] = test system: P. aeruginosa ATCC 25668, mucoid strain; assay type: cell-based, Pseudomonas aeruginosa; settings: for inhibitory effect on biofilm formation: 1/32 and 1/64 MIC, 24 h
Description: (§1) An ON bacterial culture was diluted to 2 × 10^6 cells/mL in an LB medium. 50 µL/well were seeded in a sterile non-treated polystyrene 96-well plate (Corning) and added with 50 µL LB medium containing serial dilutions of each compound (final concentrations of L- and D-Q53 CecB peptides: from 0.034 to 17.6 µM; final concentrations of tobramycin: 0.27 and 0.53 μM, and from 2.14 to 17 μM). Each condition was tested in three-six replicates. Wells containing untreated bacteria (negative controls) or LB medium only (blank) were followed in parallel. Each plate was incubated for 24 h at 37 °C without agitation. After washing twice, samples were stained with a 0.1% crystal violet solution for 20 min, washed three times, and incubated in 30% acetic acid for 20 min, as in [74]. Plates were read at 595 nm using a microplate reader. For each sample, the biofilm biomass percentage was calculated relative to that of the untreated control showing the highest OD value, set equal to 100%. Each experiment was performed at least twice.

[2] = test system: P. aeruginosa ATCC 27853, non-mucoid strain; assay type: cell-based, Pseudomonas aeruginosa; settings: for inhibitory effect on biofilm formation: 1/32 and 1/64 MIC, 24 h; for decrement in biofilm biomass (inhibition of biofilm formation): ATCC 27853, 24 h
Description: as §1

[3] = test system: linearized DNA (pIVEX 2.3d plasmid); experiment: Gel retardation assay, in vitro interaction with DNA; assay type: binding; settings: 100 ng DNA, 100-500 ng peptide, RT 1 h, 1% agarose gel; all tested conditions; three experiments
Description: One hundred ng of linearized DNA (pIVEX 2.3d plasmid) were incubated with increasing concentrations of the L- or D-peptides (0, 100, 150, 175, 200, 250, 275, 300, 350, 400, 450, 500 ng) at RT for 1 h. Samples were run into a 1% agarose gel in TAE buffer at 50 V and visualized in a Gel Doc X3+ (Biorad, Hercules, CA, USA). DNA band intensities were measured using the Image Lab software 6.1 (Biorad, Hercules, CA, USA). The band intensity reduction was calculated as the ratio between the band intensity in the presence of peptide over that of the untreated DNA. To compare the DNA binding activities of L- and D- peptides, for each peptide amount, we determined the ratio between the band intensity reduction with D-Q53 CecB and that with L-Q53 CecB. Three experiments have been performed.

[4] = test system: P. aeruginosa ATCC 25668 (lasI, rpoS, fimX, pslA, pelA, algD); experiment: Real-time qPCR of genes involved in biofilm formation; assay type: cell-based, Pseudomonas aeruginosa; settings: 20 h; 1/2 MIC L- or 1/4 MIC D-Q53 CecB; normalised to rplU
Description: Bacteria were collected after centrifugation and stored in Trizol Reagent (Ambion, Waltham, MA, USA) at −80 °C, until use. Total RNA was extracted using the Direct-zol RNA MiniPrep kit (Zymo Research, Irvine, CA, USA). The complementary DNA (cDNA) was synthesized using the Maxima™ H Minus cDNA Synthesis Master Mix with dsDNase (Molecular biology, Thermo Scientific). Each qPCR reaction was performed in triplicate, using the GoTaq qPCR Master Mix (Promega, Madison, WI, USA) and a CFX96 Real-Time PCR Detection System (Bio-Rad, Hercules, CA, USA), following the manufacturer’s instructions. The amplification conditions were 95 °C 2 min, (15 s at 95 °C, 1 min at the appropriate annealing temperature Ta, as in Table 5) ×40 cycles. The rplU gene, coding the 50 S ribosomal protein, was used to normalize qPCR data as in [36]. Fold changes were calculated by the 2^−ΔΔCT analysis method.

in vitro = assay type: cell-based, human
Description: (§2) The peptide cytotoxicity against human cells was evaluated using CCD-34Lu-lung fibroblasts and A549-lung adenocarcinoma cells. Moreover, 6 × 10^3 cells in DMEM medium added with 10% FBS were seeded in 96-well sterile plates. After 24 h, cells were incubated with increasing concentrations of peptide (final concentrations of 5, 10, 25, 50, and 100 µM, with an additional concentration of 200 µM in CCD-34Lu) for 24 h at 37 °C (three replicates per condition). Cell viability was measured by removing the exhausted medium, adding 100 µL of DMEM and 20 µL of the MTS solution (Promega). Plates were incubated at 37 °C for 20 min until the complete conversion of the compound. The absorbance was measured at 492 nm using a microplate reader. Cell viability was calculated using the formula: Viability (%)=ODCecB−OD0/ODCtrl−OD0×100, where ODCecB is the OD in the presence of the peptide, ODCtrl is the OD of cells without the peptide, and OD0 is the background absorbance (wells with only medium and MTS compound). The experiment was performed at least twice.

[5] = test system: A549 lung adenocarcinoma cells; experiment: in vitro; assay type: cell-based, human
Description: as §2

[6] = test system: CCD-34Lu lung fibroblasts; experiment: in vitro; assay type: cell-based, human
Description: as §2

Row | Molecule | inhibitory effect on biofilm formation [1] | decrement in biofilm biomass (inhibition of biofilm formation) ([1]; ATCC 25668, 24 h) [%] | mean decrement in biofilm biomass (inhibition of biofilm formation) ([1]; ATCC 25668, 24 h) [%] | inhibitory effect on biofilm formation [2] | decrement in biofilm biomass (inhibition of biofilm formation) [2] [%] | ratio between the DNA band intensities for D- and L-Q53 CecB [3] | expression level of fimX [4] | expression level of lasI [4] | expression level of rpoS [4] | expression of algD [4] | expression of pelA [4] | transcription of pslA [4] | IC50 at 24 h (in vitro) [µM] | IC50 at 24 h (in vitro; human) [µM] | cell viability ([5]; 50 µM) | cell viability ([5]; 100 µM) [%] | cell viability ([6]; 50 µM) | cell viability ([6]; 100 µM) [%] | cell viability ([6]; 200 µM) [%]
1 | CC[C@@H](C)[C@@H](NC(=O)[C@@H](C)NC(=O)[C@@H](CCCCN)NC(=O)[C@@H](C)NC(=O)[C@@H](CO)NC(=O)CNC(=O)[C@@H](CC(C)C)NC(=O)[C@H](NC(=O)[C@@H](CCC(N)=O)NC(=O)[C@H](NC(=O)[C@@H](C)NC(=O)[C@H]1CCCN1C(=O)CNC(=O)[C@@H](C)NC(=O)[C@@H](CCCCN)NC(=O)[C@H](NC(=O)[C@H](NC(=O)CNC(=O)[C@@H](CC(=O)O)NC(=O)[C@@H](CCCNC(=N)N)NC(=O)[C@H](NC(=O)[C@@H](CC(N)=O)NC(=O)[C@@H](CCCNC(=N)N)NC(=O)CNC(=O)[C@@H](CCSC)NC(=O)[C@@H](CCCCN)NC(=O)[C@@H](CCC(=O)O)NC(=O)[C@H](NC(=O)[C@@H](CCCCN)NC(=O)[C@@H](CCCCN)NC(=O)[C@@H](Cc1ccccc1)NC(=O)[C@H](NC(=O)[C@@H](CCCCN)NC(=O)[C@@H](Cc1c[nH]c2ccccc12)NC(=O)[C@H](N)CCCNC(=N)N)[C@H](C)CC)[C@H](C)CC)[C@H](C)CC)[C@H](C)CC)C(C)C)[C@H](C)CC)C(C)C)C(N)=O [D-Q53 CecB] (H-[dR][dW][dK][dI][dF][dK][dK][dI][dE][dK][dM]G[dR][dN][dI][dR][dD]G[dI][dV][dK][dA]G[dP][dA][dI][dQ][dV][dL]G[dS][dA][dK][dA][dI]-NH2; N-terminus and C-terminus assumed) | did not show any significant inhibitory effect | 30 to 44 | 93 | did not show any significant inhibitory effect | 30 to 60 | ~ 1 | not significantly different | did not significantly alter | did not significantly alter | significantly lower | significantly lower | did not affect | 72.6 ± 2.81 | 68 ± 3.71 | ~ 79% | ~15 | ~ 85% | ~27 | ~4.5
2 | RWKIFKKIEKMGRNIRDGIVKAGPAIQVLGSAKAI-NH2 [L-Q53 CecB] | did not show any significant inhibitory effect | 30 to 44 |  | did not show any significant inhibitory effect | 30 to 60 |  | not significantly different | did not significantly alter | did not significantly alter | None of the analyzed genes were altered | None of the analyzed genes were altered | did not affect |  |  |  |  |  |  | 
